Source: US8541576B2, “Substituted pyrazolo-quinazoline derivatives as kinase inhibitors” (Nerviano Medical Sciences SRL, priority 2010, dated 2013)

Key:
Full-length human PIM-1 = target: T1, Full-length human PIM-1 (Homo sapiens, UniProt P11309); assay: Biochemical assay for inhibitors of PIM-1 kinase activity (trans-phosphorylation, Dowex resin, 33P-ATP); conditions: ATP 200 μM, enzyme 1 nM, Aktide 25 μM
T1 construct: Full-length human PIM-1 was expressed and purified; made in house
Description: Biochemical assay for inhibitors of PIM-1 kinase activity
The inhibitory activity of putative kinase inhibitors and the potency of selected compounds were determined using a trans-phosphorylation assay.
Specific peptide or protein substrates are trans-phosphorylated by their specific ser-thr or tyr kinase in the presence of ATP traced with ^33P-γ-ATP, and in the presence of their own optimal buffer and cofactors.
At the end of the phosphorylation reaction, more than 98% unlabeled ATP and radioactive ATP is captured by an excess of the ion exchange Dowex® resin; the resin then settles down to the bottom of the reaction plate by gravity.
Supernatant is subsequently withdrawn and transferred into a counting plate, then evaluated by β-counting.
The buffer for PIM-1 assay was composed of HEPES 50 mM, at pH 7.5, with 10 mM MgCl2, 1 mM DTT, 3 μM NaVO3, and 0.2 mg/ml BSA
Full-length human PIM-1 was expressed and purified as described in Bullock A N, et al., J. Biol. Chem. 2005, 280, 41675-82.
1.7 μM PIM1 was incubated 1 hour RT at 28° C. in the presence of 125 μM ATP
ATP concentration: 200 μM
Enzyme concentration: 1 nM
Substrate concentration Aktide (Chemical Abstract Service Registry Number 324029-01-8): 25 μM
The test mix consisted of:
1) 3× Enzyme mix (done in Kinase Buffer 3×), 5 μL/well
2) 3× substrate and ATP mix (done in ddH2O), together with ^33P-γ-ATP, 5 μL/well
3) 3× test compounds (diluted into ddH2O—3% DMSO)-5 μL/well
For IC50 determination, test compounds are received as a 1 mM solution in 100% DMSO and distributed into 96-well plates: compounds are then plated into the first column of a new 96-well plate (A1 to G1), 100 μl/well.
An automated station (Biomek FX®, Beckman) is used for serial dilutions, producing 1:3 dilutions in 100% DMSO, from line A1 to A10, for all the compounds in the column. Moreover, 4-5 copies of daughter plates are prepared by reformatting 5 μL of this first set of 100% DMSO dilution plates into 384-deep well plates: one copy of these serial dilution plates with the test compounds is thawed on the day of study, reconstituted at the working concentration (3-fold the final concentration) with 162 μL/well of water and used for IC50 determination assays. In a standard experiment, the highest concentration (3×) of compounds is typically 30 μM, while the lowest one is typically 1.5 nM.
Each 384-well plate generates at least one curve of the standard inhibitor staurosporine and reference wells (total enzyme activity vs. no enzymatic activity) for evaluation of Z′ and signal to background (S/B) ratio.
384-well plates, V bottom (test plates) are prepared with 5 μl of compound diluted as previously described (3×) and then placed onto a PlateTrak® 12 robotized station (Perkin Elmer; the robot has one 384-tip pipetting head for assay start, plus one 96-tip head for dispensing resin) together with one reservoir for Enzyme mix (3×) and one for ATP mix (3×).
Data are analyzed by an internally customized version of the “Assay Explorer®” SW package, which provides sigmoidal fitting of the ten-dilution curves for IC50 determination in secondary assay/hit confirmation routines.

[1] = system: MV-4-11 (biphenotypic B myelomonocytic leukemia) cells; assay: In vitro cell proliferation assay (CellTiter-Glo); format: cell-based; conditions: Homo sapiens, MV4-11, antiproliferative activity, 72 hours
Description: In Vitro Cell Proliferation Assay:
MV-4-11 (biphenotypic B myelomonocytic leukemia) cells (1250 cells/well) were seeded in white 384 well-plates in complete medium (RPMI 1640 or EMEM plus 10% Fetal bovine serum) and treated with compounds dissolved in 0.1% DMSO, 24 h after seeding. The cells were incubated at 37° C. and 5% CO2 and after 72 hours the plates were processed using CellTiter-Glo® assay (Promega) following the manufacturer's instruction. CellTiter-Glo® is a homogenous method based on the quantification of the ATP present, an indicator of metabolically active cells. ATP is quantified using a system based on luciferase and D-luciferin resulting into light generation. The luminescent signal is proportional to the number of cells present in culture.
Briefly 25 μl/well reagent solution was added to each wells and after 5 minutes shacking microplates were red by Envision® (PerkinElmer) luminometer. The luminescent signal was proportional to the number of cells present in culture.
Inhibitory activity was evaluated comparing treated versus control data using Assay Explorer (MDL) program. IC50 was calculated using sigmoidal interpolation curve.

Full-length human PIM-2 = target: T2, Full-length human PIM-2 (Homo sapiens, UniProt Q9P1W9); assay: PIM-2 kinase inhibition assay: Dowex technique; format: biochemical; conditions: ATP 4 μM, enzyme 1.5 nM, Aktide 5 μM
T2 construct: Full-length human PIM-2 was expressed and purified; made in house
Description: Method for PIM-2 Kinase Inhibition Assay: Dowex Technique
The buffer for PIM-2 assay was composed of HEPES 50 mM, at pH 7.5, with 1 mM MgCl2, 1 mM DTT, 3 μM Na3VO4, and 0.2 mg/ml BSA
Full-length human PIM-2 was expressed and purified as described in Fedorov O, et al. (2007) PNAS 104, 51, 20523-28.
Assay Conditions (Final Concentrations):
Enzyme concentration=1.5 nM
Aktide substrate (Chemical Abstract Service Registry Number 324029-01-8)=5 μM
See above: same procedure as described for PIM-1.

T1 sequence (P11309 whole entry): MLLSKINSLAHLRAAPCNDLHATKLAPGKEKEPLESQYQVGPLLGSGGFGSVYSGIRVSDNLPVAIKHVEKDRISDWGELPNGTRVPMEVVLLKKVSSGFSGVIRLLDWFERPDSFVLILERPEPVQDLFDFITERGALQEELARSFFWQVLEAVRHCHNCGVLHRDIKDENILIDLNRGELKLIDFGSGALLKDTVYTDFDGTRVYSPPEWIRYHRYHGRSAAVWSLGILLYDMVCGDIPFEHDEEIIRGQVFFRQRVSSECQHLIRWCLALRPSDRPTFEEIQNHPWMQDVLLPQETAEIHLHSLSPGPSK
T2 sequence (Q9P1W9 whole entry): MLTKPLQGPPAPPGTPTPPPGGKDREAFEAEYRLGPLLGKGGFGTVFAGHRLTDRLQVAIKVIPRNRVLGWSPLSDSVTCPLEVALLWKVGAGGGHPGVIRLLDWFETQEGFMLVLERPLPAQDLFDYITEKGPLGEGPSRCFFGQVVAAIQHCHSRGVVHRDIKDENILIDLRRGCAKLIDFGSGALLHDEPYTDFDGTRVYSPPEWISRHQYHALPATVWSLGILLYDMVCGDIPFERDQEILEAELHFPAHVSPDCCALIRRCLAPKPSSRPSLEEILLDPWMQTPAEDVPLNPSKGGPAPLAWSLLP

Row | IC50 (Full-length human PIM-1) | IC50 [1] | IC50 (Full-length human PIM-2) | Compound
1 | 41 nM | 1760 nM | 156 nM | CNC(=O)c1nn(C(C)(C)C)c2c1ccc1cnc(SC)nc12 [Compound 7, 1-tert-butyl-N-methyl-8-(methylsulfanyl)-1H-pyrazolo[4,3-h]quinazoline-3-carboxamide]
2 | 776 nM | > 10000 nM | > 10000 nM | CN1CCN(c2ccc(Oc3ncc4c(n3)-c3c(c(C(N)=O)nn3C)CC4)cc2)CC1 [Compound 25, 1-methyl-8-[4-(4-methylpiperazin-1-yl)phenoxy]-4,5-dihydro-1H-pyrazolo[4,3-h]quinazoline-3-carboxamide]
3 | 33 nM | 520 nM | 861 nM | CN1CCN(c2ccc(Oc3ncc4ccc5c(C(N)=O)nn(C)c5c4n3)cc2)CC1 [Compound 26, 1-methyl-8-[4-(4-methylpiperazin-1-yl)phenoxy]-1H-pyrazolo[4,3-h]quinazoline-3-carboxamide]
4 | 4 nM | 308 nM | 498 nM | Cn1nc(C(N)=O)c2ccc3cnc(Oc4ccc(N5CCNCC5)cc4)nc3c21 [Compound 27, 1-methyl-8-[4-(piperazin-1-yl)phenoxy]-1H-pyrazolo[4,3-h]quinazoline-3-carboxamide]
5 | 21 nM | 758 nM | 2400 nM | CN1CCN(c2ccc(Oc3ncc4ccc5c(C(N)=O)nn(C)c5c4n3)c(Br)c2)CC1 [Compound 29, 8-[2-bromo-4-(4-methylpiperazin-1-yl)phenoxy]-1-methyl-1H-pyrazolo[4,3-h]quinazoline-3-carboxamide]
6 | 116 nM | 940 nM | 694 nM | CN1CCN(c2ccc(Oc3ncc4ccc5c(C(N)=O)nn(C)c5c4n3)c(F)c2)CC1 [Compound 36, 8-[2-fluoro-4-(4-methylpiperazin-1-yl)phenoxy]-1-methyl-1H-pyrazolo[4,3-h]quinazoline-3-carboxamide]
7 | 4120 nM | – | > 1000 nM | CC(=O)c1cc(N2CCN(C)CC2)ccc1Oc1ncc2ccc3c(C(N)=O)nn(C)c3c2n1 [Compound 37, 8-[2-acetyl-4-(4-methylpiperazin-1-yl)phenoxy]-1-methyl-1H-pyrazolo[4,3-h]quinazoline-3-carboxamide]
8 | 20 nM | 308 nM | 527 nM | CC(=O)c1cc(N2CCNCC2)ccc1Oc1ncc2ccc3c(C(N)=O)nn(C)c3c2n1 [Compound 38, 8-[2-acetyl-4-(piperazin-1-yl)phenoxy]-1-methyl-1H-pyrazolo[4,3-h]quinazoline-3-carboxamide]
9 | 13 nM | 866 nM | 21 nM | CN(C)c1ncc2ccc3c(C(N)=O)nn(C(C)(C)C)c3c2n1 [Compound 52, 1-tert-butyl-8-(dimethylamino)-1H-pyrazolo[4,3-h]quinazoline-3-carboxamide]
10 | 123 nM | 1940 nM | 888 nM | CSc1ncc2ccc3c(C(N)=O)nn(C)c3c2n1 [Compound 87, 1-methyl-8-(methylsulfanyl)-1H-pyrazolo[4,3-h]quinazoline-3-carboxamide]
11 | 400 nM | – | 210 nM | NC(=O)c1nn(C2CCC(N)CC2)c2c1ccc1cnc(-c3ccccc3)nc12 (centres unmarked) [Compound 111, 1-(4-aminocyclohexyl)-8-phenyl-1H-pyrazolo[4,3-h]quinazoline-3-carboxamide]
12 | > 10000 nM | – | > 10000 nM | Cn1nc(C(N)=O)c2c1-c1nc(N3CCCCC3)ncc1CC2 [Ref. Compound 1, 1-methyl-8-(piperidin-1-yl)-4,5-dihydro-1H-pyrazolo[4,3-h]quinazoline-3-carboxamide, reference compound]

The next lines start with the compound.

Row | Compound | IC50 (Full-length human PIM-1) | IC50 [1] | IC50 (Full-length human PIM-2)
13 | CSc1ncc2ccc3c(C(N)=O)nn(CCO)c3c2n1 [Compound 1, 1-(2-hydroxyethyl)-8-(methylsulfanyl)-1H-pyrazolo[4,3-h]quinazoline-3-carboxamide] | 50 nM | 992 nM | 221 nM
14 | CSc1ncc2ccc3c(C(N)=O)nn(CCN)c3c2n1 [Compound 15, 1-(2-aminoethyl)-8-(methylsulfanyl)-1H-pyrazolo[4,3-h]quinazoline-3-carboxamide] | 143 nM | 1430 nM | 282 nM
15 | CSc1ncc2ccc3c(C(N)=O)nn(CC4CCNCC4)c3c2n1 [Compound 17, 8-(methylsulfanyl)-1-(piperidin-4-ylmethyl)-1H-pyrazolo[4,3-h]quinazoline-3-carboxamide] | 9 nM | 1540 nM | 160 nM
16 | CN1CCN(c2ccc(Oc3ncc4ccc5c(C(N)=O)nn(CCO)c5c4n3)cc2)CC1 [Compound 46, 1-(2-hydroxyethyl)-8-[4-(4-methylpiperazin-1-yl)phenoxy]-1H-pyrazolo[4,3-h]quinazoline-3-carboxamide] | 81 nM | 673 nM | 1300 nM
17 | CSc1ncc2c(n1)-c1c(c(C(N)=O)nn1C1CCNCC1)CC2 [Compound 72, 8-(methylsulfanyl)-1-(piperidin-4-yl)-4,5-dihydro-1H-pyrazolo[4,3-h]quinazoline-3-carboxamide] | 270 nM | 1780 nM | 313 nM
18 | CSc1ncc2ccc3c(C(N)=O)nn(C4CCNCC4)c3c2n1 [Compound 91, 8-(methylsulfanyl)-1-(piperidin-4-yl)-1H-pyrazolo[4,3-h]quinazoline-3-carboxamide] | 19 nM | 1440 nM | 46 nM
19 | CSc1ncc2ccc3c(C(N)=O)nn(C4CCCNC4)c3c2n1 (centres unmarked) [Compound 92, 8-(methylsulfanyl)-1-(piperidin-3-yl)-1H-pyrazolo[4,3-h]quinazoline-3-carboxamide] | 22 nM | 147 nM | 21 nM
20 | CSc1ncc2ccc3c(C(N)=O)nn(CC4CCCNC4)c3c2n1 (centres unmarked) [Compound 94, 8-(methylsulfanyl)-1-(piperidin-3-ylmethyl)-1H-pyrazolo[4,3-h]quinazoline-3-carboxamide] | 80 nM | 534 nM | 311 nM
21 | COc1ncc2ccc3c(C(N)=O)nn(C4CCNCC4)c3c2n1 [Compound 97, 8-methoxy-1-(piperidin-4-yl)-1H-pyrazolo[4,3-h]quinazoline-3-carboxamide] | 154 nM | 294 nM | 271 nM
22 | CSc1ncc2c(n1)-c1c(c(C(N)=O)nn1C)CC2 [Ref. Compound 2, 1-methyl-8-(methylsulfanyl)-4,5-dihydro-1H-pyrazolo[4,3-h]quinazoline-3-carboxamide, reference compound] | 1010 nM | – | > 10000 nM
